# Assay results: US20230212571A1, “COMPOSITIONS AND METHODS FOR DELIVERING POLYNUCLEOTIDES” (NeOnc Technologies, Inc., priority 2020, published 2023)
# Legend:
# AVM-BEC [1] = assay: ELISA of AVM-BEC supernatants; type: cell-based, human
# Source text: (§1) Human surgical specimens were obtained following written informed consent from patients in accordance with Declaration of Helsinki guidelines and the Institutional Review Board (HS-04B053), at Keck School of Medicine, USC. AVM-BECs were isolated from brain tissues of patients who underwent microsurgical AVM resection. Control BECs were isolated from the structurally normal […] of patients who underwent temporal lobectomy for intractable epilepsy. Endothelial cell (EC) isolation and culture were described^5,9. (Stapleton C J, Armstrong D L, Zidovetzki R, Liu C Y, Giannotta S L, Hofman F M. Thrombospondin-1 modulates the angiogenic phenotype of human cerebral arteriovenous malformation endothelial cells. Neurosurgery. 2011; 68(5):1342-1353) (Ferreira R, Santos T, Amar A, et al. Argonaute-2 promotes miR-18a entry in human brain endothelial cells. J Am Heart Assoc. 2014; 3(3):e000968) ECs were only used between passages 3-5. Experiments were performed under shear flow conditions (12 dyn/cm^2) to reproduce arterial flow^6. (Ferreira R, Santos T, Amar A, et al. MicroRNA-18a improves human cerebral arteriovenous malformation endothelial cell function. Stroke. 2014; 45(1):293-297). For hypoxic experiments, cells were cultured in a Galaxy 48R (Eppendorf) incubator at 3% O2. MicroRNAs were co-administered with Ago-2 to increase the cellular uptake of miR-18a^9 (Ferreira R, Santos T, Amar A, et al. Argonaute-2 promotes miR-18a entry in human brain endothelial cells. J Am Heart Assoc. 2014; 3(3):e000968) (FIG. 9). Methods regarding cell treatments and transfections were included in Data.
# (§2) Small interfering RNA transfection was performed as previously described^5. Briefly, ECs were transfected with small interfering RNA (siRNA) against ID1 or PAI-1 (Thermo Fisher Scientific), or small interfering control (Santa Cruz Biotechnology) constructs using Lipofectamine RNAiMax (Thermo Fisher Scientific) per the manufacturer's instructions. Knockdown of ID1 or PAI-1 was confirmed by quantitative real-time polymerase chain reaction as described^6 (FIG. 19). The sequences of the forward and reverse primers for ID1 and PAI-1 were included in Table 2.
# (§3) Plasmid constructs pcDNA3-ALK2^WT (Addgene #80870) and pcDNA3-ALK2^Q207D (Addgene #80871) were a gift from Aristidis Moustakas^7. (Meyer B, Schaller C, Frenkel C, Ebeling B, Schramm J. Distributions of local oxygen saturation and its response to changes of mean arterial blood pressure in the cerebral cortex adjacent to arteriovenous malformations. Stroke. 1999; 30(12):2623-2630) 10^4 AVM-BEC were seeded 24 h before transfection. The plasmid vector containing the 3′ untranslated region (3′UTR) of human BMP4, pRP [Exp]-Puro-CMV>Luciferase:{hBMP4_3′UTR}, was constructed and packaged by VectorBuilder. The vector ID is VB200205-1078zdv, which can be used to retrieve detailed information about the vector on vectorbuilder.com. Transient transfections were performed with Lipofectamine RNAiMax (Thermo Fisher Scientific) according to the manufacturer's instructions. After 4 h, medium was replaced by fresh medium containing microRNA.
# (§4) MiR-18a (hsa-miR-18a-5p, 40 nM, Dharmacon) or a scramble microRNA (40 nM, Dharmacon) in nuclease-free water was added with argonaute 2 (Ago-2, 0.4 nM, Abcam) as the microRNA carrier and stabilizer^9. (Ferreira R, Santos T, Amar A, et al. Argonaute-2 promotes miR-18a entry in human brain endothelial cells. J Am Heart Assoc. 2014; 3(3):e000968). No transfection reagent was used with miR-18a or scramble microRNA treatments. Recombinant human TSP-1 (R&D Systems) stock solution was prepared in PBS and further diluted in culture medium to be used at a final concentration of 1000 ng/mL. Cells were treated during 24 h for mRNA and 48 h for protein expression studies. NEO100 (NeOnc Technologies) stock was prepared in DMSO and used immediately or stored at −20° C. […]
# AVM-BEC [2] = details: previous studies (Stapleton 2011); cited from earlier work
# BEC = assay: ELISA of control BEC supernatants; type: cell-based, human; details: control BEC supernatants, normoxia
# Source text: as §1, §2, §3, §4
substance,measurement,setting,value
"TSP-1: Recombinant human TSP-1 (R&D Systems), used at 1000 ng/mL",levels of secreted PAI-1,"AVM-BEC [1]; AVM-BEC supernatants, normoxia, vs scramble microRNA",decreased
same,levels of secreted VEGF,"AVM-BEC [1]; AVM-BEC supernatants, normoxia, decrease only reached significance with miR-18a",decreased
same,PAI-1 secretion,"AVM-BEC [1]; AVM-BEC, hypoxia 3% oxygen","neither treatment with TSP-1 (P=0.3917), nor ID1 knock-down (P=0.1701) were able to significantly decrease the levels of PAI-1"
same,migration rate of AVM-BEC,AVM-BEC [2],decreases their migration rate
same,levels of secreted PAI-1,BEC,without affecting control BEC
same,levels of secreted VEGF,BEC,without affecting control BEC
